Several values for one entry are separate records, joined by “and”; a condition that tells them apart may be missing. Identical values can stand only once.
Columns and labels:
[1] = Cytotoxicity assay, positive control (cell line not stated); format: cell-based; settings: human
[2] = tested on: two respiratory isolates (carrying NDM-5 and TEM-OSBL) from Russia in 2019; settings: both isolates, reported to be resistant to cefiderocol; cited from earlier work
E. coli = test: MIC by broth microdilution (CLSI) against E. coli; format: cell-based, Escherichia coli
Description: (§1) MIC tests were performed by broth microdilution in-line with CLSI susceptibility testing standards ([20], [21]) either in-house or at IHMA (Europe and USA) or JMI Laboratories using cation-adjusted Mueller Hinton Broth.

K. pneumoniae = test: MIC by broth microdilution (CLSI) against K. pneumoniae; format: cell-based, Klebsiella pneumoniae
Description: as §1

[3] = 15 clinical MDR NDM isolates (NDM-1, NDM-4, NDM-5) from India (2018)
[4] = 100 MDR clinical isolates incl. ESBL and CRE

Question: For `CSc1ccc2c(c1)N(CCC1CCCCN1C)c1ccccc1S2` (centres unmarked) [Thioridazine], which IC50 at 24 h [1] is on record?
Answer: 22.1 µM and 8.19 µg/mL

Question: For `CC(C)(O/N=C(\C(=O)N[C@@H]1C(=O)N2C(C(=O)[O-])=C(C[N+]3(CCNC(=O)c4ccc(O)c(O)c4Cl)CCCC3)CS[C@H]12)c1csc(N)n1)C(=O)O` [cefiderocol], which MIC [2] is on record?
Answer: > 64 µg/mL

Question: What does the source list for Colistin [reference compound]?
Answer: MIC Range E. coli (NDM) (E. coli; [3]): 0.5 to 1 µg/mL; MIC50 E. coli (E. coli; [4]): 0.5 µg/mL; MIC90 E. coli (E. coli; [4]): 0.5 µg/mL; MIC range E. coli (E. coli; [4]): 0.25 to 8 µg/mL; MIC (E. coli; E. coli NCTC 13441 (UPEC, MDR, CTX-M-15 ESBL)): 0.16 µM and 0.18 µg/mL; MIC Range K. pneumoniae (NDM) (K. pneumoniae; [3]): 1 to 32 µg/mL; MIC50 K. pneumoniae (K. pneumoniae; [4]): 0.5 µg/mL; MIC90 K. pneumoniae (K. pneumoniae; [4]): 16 µg/mL; MIC (K. pneumoniae; K. pneumoniae NCTC 13438 (MDR, Class A KPC)): 1.56 µM and 1.80 µg/mL

From publication PMC10777851, “SMT-738: a novel small-molecule inhibitor of bacterial lipoprotein transport targeting Enterobacteriaceae” (Antimicrobial Agents and Chemotherapy, 2023)
